Results reported in patent US9403756B2, “N-phenyl anthranilic acid derivatives and uses thereof” (Ramot at Tel-Aviv University Ltd., priority 2007, dated 2016).

Legend:
[1] = tested on: primary hippocampal neurons; experiment: Spontaneous and miniature EPSCs/IPSCs in primary hippocampal neurons, voltage-clamp; assay type: cell-based, rat; details: for effect on amplitude of miniature EPSCs and IPSCs: NH29 at 25 μM, data not shown
Procedure: For hippocampal neuronal cultures, Sprague-Dawley rat embryos (E18) were removed by caesarian section and their hippocampi were dissected out. The tissue was digested with papain for 20 min, triturated to a single-cell suspension, and plated at a density of 40,000 cells per ml on a substrate of bovine collagen type IV and 100 μg/ml poly-L-lysine in 13 mm diameter glass coverslips of a 24-multiwell plate. The culture medium consisted of Modified Eagle's Medium containing 5% horse serum (Biological Industries, Beit HaEmek, Israel), B-27 neuronal supplement (Invitrogen, Carlsbad, Calif.), 100 U/ml penicillin, 100 μg/ml streptomycin, and 2 mM glutamine. D-glucose was supplemented to a final concentration of 6 g/l. Cytosine-1-D-arabinofuranoside (5 μM) was added after 5 days to arrest glial cell proliferation.
For electrophysiological recordings hippocampal neurons were used at 10-14 days in culture. All cultures were maintained at 37° C. in humidified air containing 5% CO2.
Spontaneous excitatory postsynaptic currents (EPSCs) were recorded in the voltage-clamp configuration of the whole-cell patch-clamp technique at a holding potential of −70 mV as previously described; the extracellular solution contained (in mM) 160 NaCl, 2.5 KCl, 10 HEPES, 10 glucose, 2 CaCl2; pH 7.3 (325 mOsm), to which 30 μM picrotoxin and 10 μM bicuculline methyl iodide were added. The intracellular solution consisted (in mM) of 130 K-gluconate, 10 KCl, 1.1 EGTA, 10 HEPES, 1 MgCl2, 2 Na2ATP, 0.1 CaCl2 and 5 QX314Br to block Na^+ currents; pH 7.2 (315 mOsm).
Spontaneous inhibitory postsynaptic currents (IPSCs) were recorded at a holding potential of −70 mV; the extracellular solution contained (in mM) 160 NaCl, 2.5 KCl, 10 HEPES, 10 glucose, 2 CaCl2; pH 7.3 (325 mOsm), to which 10 μM NBQX and 10 μM AP-5 were added. The intracellular solution consisted (in mM) of 144 CsCl, 10 HEPES, 1.1 EGTA, 0.1 CaCl2, 5 MgCl2, 2 Na2ATP, 5 QX314 Br; pH 7.3 (315 mOsm).
Data analysis was performed using the Clampfit program (pClamp 9.2, Molecular Devices), Microsoft Excel (Microsoft) and Prism 4.0 (GraphPad). Chord conductance (G) was calculated by using the following equation: G=I/(V−Vrev) where I corresponds to the current amplitude measured at the end of the pulse and Vrev, the calculated reversal potential. G was estimated at various test voltages V and then, normalized to a maximal conductance value, Gmax. Activation curves were fitted by one Boltzmann distribution: G/Gmax=1/{1+exp[(V50−V)/s]} where V50 is the voltage at which the current is half-activated and s is the slope factor. All data were expressed as mean±SEM. Statistically significant differences were assessed by Student's t-test. Analysis of sEPSCs and sIPSCs was done using the Clampfit program (pClamp 9.2, Molecular Devices) and included evaluation of the individual events as well as the average event amplitude and the integral of the event (total charge transfer).
Because of their slow activation and their lack of inactivation, M-channels could modulate neuronal activity during repetitive spike discharge and tune neurotransmitter release. FIG. 6 illustrates the effect of NH25 on synaptic transmission and transmitter release. Spontaneous excitatory and inhibitory post-synaptic currents (sEPSCs and sIPSCs) were recorded from dense cultures of primary hippocampal neurons, using the voltage-clamp configuration of the whole-cell patch-clamp technique.

DRG neurons = experiment: Current-clamp recordings in cultured DRG neurons; assay type: cell-based, rat; details: for rheobase current to generate a single spike: 2 ms injection
Procedure: For dorsal root ganglion (DRG) neuronal cultures, ganglia were dissected from 2-5 day-old Sprague-Dawley rats killed by decapitation. DRGs were placed in Hank's balanced saline solution (HBSS) and prepared by enzymatic dissociation. Briefly, after 30 minutes incubation in 5 mg/ml dispase, 2 mg/ml collagenase type 1A and 0.1 mg/ml DNase (Invitrogen/Gibco, Carlsbad, Calif.) in Ca^2+ and Mg^2+-free HBSS, the ganglia were mechanically triturated with a fire-polished glass Pasteur pipette. The ganglia were then centrifuged for 5 minutes at 80×g and resuspended in DMEM supplemented with 2 mM L-glutamine, 16.5 mM NaHCO3, 6 g/l glucose, 5 ml penicillin/streptomycin and 10% fetal calf serum.
For electrophysiological recording, dissociated neurons were plated on 13 mm glass coverslips, previously coated with poly-D-lysine (1 mg/ml) and laminin (10 μg/ml) and used at 1-2 days in culture.
For current-clamp recordings in primary cultured neurons, the patch pipettes were filled with (in mM): 135 KCl, 1 K2ATP, 1 MgATP, 2 EGTA, 1.1 CaCl2, 5 glucose, 10 HEPES, adjusted with KOH at pH 7.4 (315 mOsm). The external solution contained (in mM): 150 NaCl, 2.5 KCl, 2 CaCl2, 2 MgCl2, 15 glucose, 10 HEPES, adjusted with NaOH at pH 7.4 (325 mOsm). Recordings were sampled at 5 kHz and filtered at 2 KHz via a 4-pole Bessel low pass filter. A liquid junction potential of about −15.6 mV was measured between the intracellular and saline solutions and corrected on-line.
For evoking spike discharges, 75-200 pA square depolarizing current pulses were injected into neurons for 400 ms. For rheobase current measurements, 100-1100 pA square depolarizing current pulses were injected into neurons for 2 ms.

| Structure (SMILES) | effect on amplitude of miniature EPSCs and IPSCs [1] | rheobase current to generate a single spike (DRG neurons; 25 μM NH29, control 178±36 pA, n=8) [pA] | resting membrane potential (DRG neurons; 25 μM NH29, control −56.0±2.2 mV, n=7) [mV] | hyperpolarization of resting membrane potential (DRG neurons; 25 μM NH29, n=7) [mV] | effect on amplitude and kinetics of sIPSCs ([1]; 25 μM) | reduction of charge transfer within the bursts of sEPSCs ([1]; 25 μM) | reduction of total charge transfer of sEPSCs ([1]; 25 μM) | effect on burst duration of sEPSCs ([1]; 25 μM, holding potential −70 mV) | inhibition at 25 µM ([1]; Rattus norvegicus, Hippocampal neuron, 25 μM, holding potential −70 mV, read-out: inhibition of sIPSCs frequency of spontaneous occurrence) [%] | rheobase current to generate a single spike (DRG neurons; 25 μM NH25, control 400±41 pA, n=12) [pA] | number of evoked action potentials (DRG neurons; 25 μM NH25, 75-200 pA for 400 ms, control 10.4±0.8, n=8) | resting membrane potential (DRG neurons; 25 μM NH25, control −60.6±0.3 mV, n=13) [mV] | hyperpolarization of resting membrane potential (DRG neurons; 25 μM NH25, n=13) [mV] |
| --- | --- | --- | --- | --- | --- | --- | --- | --- | --- | --- | --- | --- | --- |
| O=C(Cc1cc([N+](=O)[O-])cc([N+](=O)[O-])c1Nc1c(Cl)cc([N+](=O)[O-])cc1Cl)NCCO [NH29] | did not affect | 300±55 | −65.0±3.4 | −9.0±1.9 |  |  |  |  |  |  |  |  |  |
| O=C(Cc1cc([N+](=O)[O-])ccc1Nc1c(Cl)cccc1Cl)OCCO [NH25] | did not affect |  |  |  | did not significantly affect | about 50% | about 50% | markedly reduced | > 98 | 577±38 | 0.8±0.3 | −69.0±0.3 | −8.3±0.2 |
